Reference: ChEMBL document CHEMBL1833808, “Identification of novel BRAF kinase inhibitors with structure-based virtual screening” (Bioorg Med Chem Lett, 2011)
pKd: −log10 of the molar value.

Each molecule was assayed against Serine/threonine-protein kinase B-raf (Homo sapiens, UniProt P15056) (assay: Inhibition of BRAF).
Sequence of Serine/threonine-protein kinase B-raf (P15056 whole entry): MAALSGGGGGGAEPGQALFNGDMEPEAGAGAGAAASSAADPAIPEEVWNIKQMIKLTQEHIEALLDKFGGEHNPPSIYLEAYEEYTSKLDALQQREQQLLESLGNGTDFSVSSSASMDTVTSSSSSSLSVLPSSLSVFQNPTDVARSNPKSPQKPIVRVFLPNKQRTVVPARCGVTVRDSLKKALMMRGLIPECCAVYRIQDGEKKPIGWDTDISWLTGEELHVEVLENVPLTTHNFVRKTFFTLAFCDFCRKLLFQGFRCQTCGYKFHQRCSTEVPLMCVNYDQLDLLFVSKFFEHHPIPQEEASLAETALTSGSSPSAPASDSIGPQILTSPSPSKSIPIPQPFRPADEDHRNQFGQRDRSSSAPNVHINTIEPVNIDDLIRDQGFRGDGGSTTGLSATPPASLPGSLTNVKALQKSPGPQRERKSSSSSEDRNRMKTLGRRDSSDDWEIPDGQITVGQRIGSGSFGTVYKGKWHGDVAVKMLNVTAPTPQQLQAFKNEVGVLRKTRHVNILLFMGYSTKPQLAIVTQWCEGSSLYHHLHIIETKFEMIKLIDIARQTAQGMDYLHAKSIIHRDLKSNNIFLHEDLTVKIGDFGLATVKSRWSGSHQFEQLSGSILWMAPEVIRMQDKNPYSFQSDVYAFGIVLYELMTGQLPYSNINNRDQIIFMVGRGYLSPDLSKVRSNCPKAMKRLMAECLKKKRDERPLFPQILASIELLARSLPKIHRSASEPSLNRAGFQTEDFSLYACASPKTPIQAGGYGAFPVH

| SMILES | pKd |
| --- | --- |
| Cc1ccc(CNC(=O)c2c(N)n(-c3cccc(O)c3)c3nc4ccccc4nc23)cc1 | 4.90 |
| CCOC(=O)c1cccc(Nc2nc(N)nc3[nH]cnc23)c1 | 6.15 |
| Cc1ccc(/C=C/c2nc(N)nc(-c3ccccc3O)n2)o1 | 4.70 |
| NC(=O)c1ccc(Nc2nnc(-c3ccc(O)cc3)c3ccccc23)cc1 | 5.68 |
| O=C1N/C(=N\c2ccc(O)cc2)S/C1=C\c1c[nH]c2ccccc12 | 4.73 |
